# From patent US8926966B1 (Regents of the University of California, priority 1990, dated 2015)
# Test system: IDDM associated autoantibodies in sera
# Test: ELISA of sera on plate-bound human GAD65 peptides
# Type: binding
# Settings: for number of IDDM (at risk, pre-IDDM, at onset) patients positive (X) for the peptide (unlabelled sum line): IDDM sera of Table 11
# Description: Patient sera and most control sera were those used in a previous study (Kaufman, et al., J. Clin. Investigation, supra) All samples were coded and tested in a blind manner. Peptides were synthesized using an automatic instrument (Applied Biosystems, Foster City, Calif.) and standard conditions. Peptides were dissolved in 60 mM sodium bicarbonate buffer (pH 9.6) at 20 ug/ml and 100 ul of each was added to duplicated wells of a 96 well Nunc-Immuno Plate. Peptides were allowed to bind at 4° C. overnight. The plates were then washed three times with PBS+0.1% Tween 20 (wash buffer), after which the plates were pre-absorbed with 3% BSA in sodium bicarbonate buffer for 0.5 hours at 37° C., or at room temperature overnight. The plates were then washed 5 times with the above wash buffer. 100 ul of serum at a 1/300 dilution in PBS+0.1% Tween 20 and 1% BSA was added to each well and antibodies were allowed to bind for 1 hour at 37° C. The plates were washed 5 times with wash buffer. 100 ul of a 1/600 dilution of HRP-goat anti-human IgG (BRL, Gaithersberg, Md.) was added to each well and allowed to bind for 1 hour at 37° C. The plates were then washed 7 times and 100 ul of substrate buffer was added to each well for 30 minutes at room temperature. The color development was measured at 410 nm using an ELISA plate reader (ICN, Biomedicals, Costa Mesa, Calif.). Positive sera were defined as: OD410 of the sample/negative control ≧3.0.
# [1] = IDDM At Onset serum 048, 1/300 dilution
# [2] = IDDM At Onset serum 291, 1/300 dilution
# [3] = IDDM At Onset serum 705, 1/300 dilution
# [4] = IDDM At Onset serum S.H., 1/300 dilution
# [5] = IDDM At Risk serum 052, 1/300 dilution
# [6] = IDDM At Risk serum 356, 1/300 dilution
# [7] = IDDM At Risk serum 825, 1/300 dilution
# [8] = IDDM At Risk serum L.I., 1/300 dilution
# [9] = Pre-IDDM serum 723, 1/300 dilution
# [10] = Pre-IDDM serum J.B. (1), 1/300 dilution
# [11] = Pre-IDDM serum J.B. (2), 1/300 dilution
# [12] = Pre-IDDM serum P.T. (1), 1/300 dilution
# [13] = Pre-IDDM serum P.T. (2), 1/300 dilution
# [14] = Pre-IDDM serum R.S. (1), 1/300 dilution
# [15] = Pre-IDDM serum R.S. (2), 1/300 dilution
# [16] = control serum 4380, 1/300 dilution
# [17] = control serum 5620, 1/300 dilution
# [18] = control serum FA12, 1/300 dilution
# [19] = control serum S.M., 1/300 dilution
sequence,measurement,setting,value
DICKKYKIWMHVDAAWGGGLLMS [Peptide 24],immunoreactivity by both control and patient sera,,often positive
same,immunoreactivity of serum with GAD65 peptide,[1],X (X = positive for immunoreactivity as defined by 00/background^3.0)
same,immunoreactivity of serum with GAD65 peptide,[2],X (X = positive for immunoreactivity as defined by 00/background^3.0)
same,immunoreactivity of serum with GAD65 peptide,[3],X (X = positive for immunoreactivity as defined by 00/background^3.0)
same,immunoreactivity of serum with GAD65 peptide,[4],X (X = positive for immunoreactivity as defined by 00/background^3.0)
same,immunoreactivity of serum with GAD65 peptide,[5],X (X = positive for immunoreactivity as defined by 00/background^3.0)
same,immunoreactivity of serum with GAD65 peptide,[6],X (X = positive for immunoreactivity as defined by 00/background^3.0)
same,immunoreactivity of serum with GAD65 peptide,[7],X (X = positive for immunoreactivity as defined by 00/background^3.0)
same,immunoreactivity of serum with GAD65 peptide,[8],X (X = positive for immunoreactivity as defined by 00/background^3.0)
same,immunoreactivity of serum with GAD65 peptide,[9],X (X = positive for immunoreactivity as defined by 00/background^3.0)
same,immunoreactivity of serum with GAD65 peptide,"Pre-IDDM serum B.Y. (1), 1/300 dilution",X (X = positive for immunoreactivity as defined by 00/background^3.0)
same,immunoreactivity of serum with GAD65 peptide,"Pre-IDDM serum B.Y. (2), 1/300 dilution",X (X = positive for immunoreactivity as defined by 00/background^3.0)
same,immunoreactivity of serum with GAD65 peptide,"Pre-IDDM serum J.A., 1/300 dilution",X (X = positive for immunoreactivity as defined by 00/background^3.0)
same,immunoreactivity of serum with GAD65 peptide,[10],X (X = positive for immunoreactivity as defined by 00/background^3.0)
same,immunoreactivity of serum with GAD65 peptide,[11],X (X = positive for immunoreactivity as defined by 00/background^3.0)
same,immunoreactivity of serum with GAD65 peptide,[12],X (X = positive for immunoreactivity as defined by 00/background^3.0)
same,immunoreactivity of serum with GAD65 peptide,[13],X (X = positive for immunoreactivity as defined by 00/background^3.0)
same,immunoreactivity of serum with GAD65 peptide,[14],X (X = positive for immunoreactivity as defined by 00/background^3.0)
same,immunoreactivity of serum with GAD65 peptide,[15],X (X = positive for immunoreactivity as defined by 00/background^3.0)
same,immunoreactivity of serum with GAD65 peptide,"control serum 1688, 1/300 dilution",X (X = positive for immunoreactivity as defined by 00/background^3.0)
same,immunoreactivity of serum with GAD65 peptide,[16],X (X = positive for immunoreactivity as defined by 00/background^3.0)
same,immunoreactivity of serum with GAD65 peptide,[17],X (X = positive for immunoreactivity as defined by 00/background^3.0)
same,immunoreactivity of serum with GAD65 peptide,"control serum 5748, 1/300 dilution",X (X = positive for immunoreactivity as defined by 00/background^3.0)
same,immunoreactivity of serum with GAD65 peptide,"control serum A.P., 1/300 dilution",X (X = positive for immunoreactivity as defined by 00/background^3.0)
same,immunoreactivity of serum with GAD65 peptide,"control serum FA2, 1/300 dilution",X (X = positive for immunoreactivity as defined by 00/background^3.0)
same,immunoreactivity of serum with GAD65 peptide,"control serum FA8, 1/300 dilution",X (X = positive for immunoreactivity as defined by 00/background^3.0)
same,immunoreactivity of serum with GAD65 peptide,"control serum FA9, 1/300 dilution",X (X = positive for immunoreactivity as defined by 00/background^3.0)
same,immunoreactivity of serum with GAD65 peptide,"control serum FA11, 1/300 dilution",X (X = positive for immunoreactivity as defined by 00/background^3.0)
same,immunoreactivity of serum with GAD65 peptide,[18],X (X = positive for immunoreactivity as defined by 00/background^3.0)
same,immunoreactivity of serum with GAD65 peptide,"control serum H.B., 1/300 dilution",X (X = positive for immunoreactivity as defined by 00/background^3.0)
same,immunoreactivity of serum with GAD65 peptide,"control serum P.T., 1/300 dilution",X (X = positive for immunoreactivity as defined by 00/background^3.0)
same,immunoreactivity of serum with GAD65 peptide,[19],X (X = positive for immunoreactivity as defined by 00/background^3.0)
DMVGLAADWLTSTANTNMFT [Peptide 13],immunoreactivity of serum with GAD65 peptide,[5],b (b = borderline response (00/background ?2.5-2.9).)
ERANSVTWNPHKMMGVPLQC [Peptide 26],immunoreactivity of serum with GAD65 peptide,[2],X (X = positive for immunoreactivity as defined by 00/background^3.0)
same,"number of IDDM (at risk, pre-IDDM, at onset) patients positive (X) for the peptide (unlabelled sum line)",,1
same,immunoreactivity of serum with GAD65 peptide,[17],b (b = borderline response (00/background ?2.5-2.9).)
EYGTTTMVSYQPLGDKVNFFR [Peptide 36],immunoreactivity of serum with GAD65 peptide,[3],X (X = positive for immunoreactivity as defined by 00/background^3.0)
same,"number of IDDM (at risk, pre-IDDM, at onset) patients positive (X) for the peptide (unlabelled sum line)",,1
EYLYNIIKNREGYEMVFDGK [Peptide 32],immunoreactivity of serum with GAD65 peptide,[1],X (X = positive for immunoreactivity as defined by 00/background^3.0)
same,immunoreactivity of serum with GAD65 peptide,[2],b (b = borderline response (00/background ?2.5-2.9).)
same,immunoreactivity of serum with GAD65 peptide,[8],b (b = borderline response (00/background ?2.5-2.9).)
same,"number of IDDM (at risk, pre-IDDM, at onset) patients positive (X) for the peptide (unlabelled sum line)",,1
same,immunoreactivity of serum with GAD65 peptide,[13],b (b = borderline response (00/background ?2.5-2.9).)
same,immunoreactivity of serum with GAD65 peptide,[16],b (b = borderline response (00/background ?2.5-2.9).)
EYVTLKKMREIIGWPGGSGD [Peptide 15],immunoreactivity of serum with GAD65 peptide,[5],b (b = borderline response (00/background ?2.5-2.9).)
GLLMSRKHKLSGVERANS [Peptide 25],controls whose sera recognized the peptide,13 control sera,1 out of 13
same,number of control sera positive (X) for the peptide (unlabelled sum line),13 control sera,1
same,immunoreactivity of serum with GAD65 peptide,[1],X (X = positive for immunoreactivity as defined by 00/background^3.0)
same,immunoreactivity of serum with GAD65 peptide,[2],X (X = positive for immunoreactivity as defined by 00/background^3.0)
same,immunoreactivity of serum with GAD65 peptide,[3],X (X = positive for immunoreactivity as defined by 00/background^3.0)
same,immunoreactivity of serum with GAD65 peptide,[4],X (X = positive for immunoreactivity as defined by 00/background^3.0)
same,immunoreactivity of serum with GAD65 peptide,[6],X (X = positive for immunoreactivity as defined by 00/background^3.0)
same,immunoreactivity of serum with GAD65 peptide,[7],b (b = borderline response (00/background ?2.5-2.9).)
same,"number of IDDM (at risk, pre-IDDM, at onset) patients positive (X) for the peptide (unlabelled sum line)",,8
same,immunoreactivity of serum with GAD65 peptide,[9],X (X = positive for immunoreactivity as defined by 00/background^3.0)
same,immunoreactivity of serum with GAD65 peptide,[11],b (b = borderline response (00/background ?2.5-2.9).)
same,immunoreactivity of serum with GAD65 peptide,[12],b (b = borderline response (00/background ?2.5-2.9).)
same,immunoreactivity of serum with GAD65 peptide,[13],X (X = positive for immunoreactivity as defined by 00/background^3.0)
same,immunoreactivity of serum with GAD65 peptide,[14],X (X = positive for immunoreactivity as defined by 00/background^3.0)
same,immunoreactivity of serum with GAD65 peptide,[15],X (X = positive for immunoreactivity as defined by 00/background^3.0)
same,immunoreactivity of serum with GAD65 peptide,[18],b (b = borderline response (00/background ?2.5-2.9).)
same,immunoreactivity of serum with GAD65 peptide,[19],X (X = positive for immunoreactivity as defined by 00/background^3.0)
same,patients whose sera recognized the peptide,patients previously shown to be 64K positive,6/8
GSGDSENPGTARAWCQVAQKFTG [Peptide 2],immunoreactivity of serum with GAD65 peptide,[4],b (b = borderline response (00/background ?2.5-2.9).)
same,immunoreactivity of serum with GAD65 peptide,[5],b (b = borderline response (00/background ?2.5-2.9).)
HATDLLPACDGERPTLAFLQ [Peptide 7],immunoreactivity of serum with GAD65 peptide,[2],b (b = borderline response (00/background ?2.5-2.9).)
same,immunoreactivity of serum with GAD65 peptide,[10],b (b = borderline response (00/background ?2.5-2.9).)
same,immunoreactivity of serum with GAD65 peptide,[11],b (b = borderline response (00/background ?2.5-2.9).)
same,immunoreactivity of serum with GAD65 peptide,[13],b (b = borderline response (00/background ?2.5-2.9).)
KGTTGFEAHVDKCLELAEYLYN [Peptide 31],immunoreactivity of serum with GAD65 peptide,[5],b (b = borderline response (00/background ?2.5-2.9).)
same,immunoreactivity of serum with GAD65 peptide,[12],b (b = borderline response (00/background ?2.5-2.9).)
same,immunoreactivity of serum with GAD65 peptide,[13],b (b = borderline response (00/background ?2.5-2.9).)
KHYDLSYDTGDKALQCGRHV [Peptide 29],immunoreactivity of serum with GAD65 peptide,[1],X (X = positive for immunoreactivity as defined by 00/background^3.0)
same,immunoreactivity of serum with GAD65 peptide,[3],X (X = positive for immunoreactivity as defined by 00/background^3.0)
same,immunoreactivity of serum with GAD65 peptide,[5],X (X = positive for immunoreactivity as defined by 00/background^3.0)
same,"number of IDDM (at risk, pre-IDDM, at onset) patients positive (X) for the peptide (unlabelled sum line)",,4
same,immunoreactivity of serum with GAD65 peptide,[11],b (b = borderline response (00/background ?2.5-2.9).)
same,immunoreactivity of serum with GAD65 peptide,[12],X (X = positive for immunoreactivity as defined by 00/background^3.0)
same,immunoreactivity of serum with GAD65 peptide,[13],X (X = positive for immunoreactivity as defined by 00/background^3.0)
KPCSCSKVDVNYAFLHATDL [Peptide 6],immunoreactivity of serum with GAD65 peptide,[1],X (X = positive for immunoreactivity as defined by 00/background^3.0)
same,immunoreactivity of serum with GAD65 peptide,[5],X (X = positive for immunoreactivity as defined by 00/background^3.0)
same,"number of IDDM (at risk, pre-IDDM, at onset) patients positive (X) for the peptide (unlabelled sum line)",,2
same,immunoreactivity of serum with GAD65 peptide,[15],b (b = borderline response (00/background ?2.5-2.9).)
